Data set [1] concerns Bacillus subtilis No. 10707. Kind of data set: Antibacterial activity of the preparate (units/mg), paper disc method. The class given is cell-based. Here is the method: After the completion of fermentation, the culture liquor is adjusted to pH 2.5 with concentrated sulfuric acid and is stirred for 30 minutes. Thereafter, about 7 kg of a filter aid, Radiolite No. 600 (product of Showa Kagaku Kogyo Co., Ltd.) is added to the culture liquor and the microbial cells are removed by filtration. The filtrate is adjusted to pH 7.5 by the addition of 6 N sodium hydroxide. The resulting filtrate is passed through a column packed with about 20 L. of a cation exchange resin, Amberlite IRC-50 (ammonia form). The active principles are adsorbed on the resin. After the resin is washed with water, elution of the active principles is carried out with 1 N aqueous ammonia. The eluate is subjected to determination of activity by a paper disc method using an agar plate of Bacillus subtilis No. 10707. Fractions showing activity are combined and concentrated under reduced pressure to about 1 L. The concentrate is passed through a column packed with 500 ml of an anion exchange resin, Dowex 1×2 (OH form) and then about 2 L. of water is passed through the column. In this manner, impurities are removed and the active principles are eluted with water. The active fractions are combined and concentrated under reduced pressure to about 100 ml. The concentrate is then passed through a column packed with about 50 ml of active carbon powder. The active principles are adsorbed on the active carbon. The column is washed with water. The effluent and washings are discarded. Elution is then carried out with 0.2 N sulfuric acid. The eluate is subjected to determination of activity by a paper disc method using Bacillus subtilis No. 10707. The active fractions are combined and passed through a column of an anion exchange resin, Dowex 44 (OH form) and elution of the active principles is carried out with water. The active fractions are combined and concentrated to about 60 ml. The concentrate is then freeze-dried to obtain a crude powder of Fortimicin complex. The yield of the crude powder is about 40 g.
(§1) The powder is charged over about 500 ml of silica gel in a glass column to form a uniform, thin layer. The silica gel is previously suspended in a mixed solvent of chloroform, ethanol, concentrated aqueous ammonia and acetone (2:2:1:2 by volume), and packed in the glass column to form a tight, uniform layer. The column is then thoroughly washed with the same solvent. After the crude powder is charged, the solvent having the same composition as described above is poured gradually into the column from the top and thereafter elution is carried out continuously at a flow rate of 50 ml/hour. The eluate is recovered in 20 ml fractions and the activity of each of the fractions is determined by a paper disc method using Bacillus subtilis No. 10707. First, Fortimicin KF is eluted followed by Fortimicin A and Fortimicin D. The active fractions are subjected to thin layer chromatography. The fractions containing Fortimicin KF are collected and concentrated under reduced pressure to remove the solvent.
The residue is dissolved in a small amount of water and then the solution is freeze-dried to obtain about 2 g of a purified preparate of the free base of Fortimicin KF.
as §1, with “This powder” for “The powder”, “the” for “the crude”, “10707. […]” for “10707. First, Fortimicin KF is eluted followed by Fortimicin A and Fortimicin D. The active fractions are subjected to thin layer chromatography. The fractions containing Fortimicin KF are collected and concentrated under reduced pressure to remove the solvent.”

A short description of data set [2]: Solubility of the free base. It is filed as physicochemical. The note with it: for solubility in organic solvents / solubility in ethanol and acetone / solubility in methanol / solubility in water: free base; for solubility in organic solvents: chloroform, benzene, ethyl acetate, butyl acetate, ether, butanol, petroleum ether, n-hexane.
The test system of the next data set is Escherichia coli ATCC 26. Kind of data set: Minimum inhibitory concentration, agar dilution method at pH 8.0. The class given is cell-based. The note with it: ATCC26. An excerpt:
(§2) In the following Table 4, the antibacterial spectra of Fortimicin KF and Fortimicin KG against various microorganisms are set forth.
(§3) (Minimum Inhibitory Concentration, γ/ml measured by
(§4) agar dilution method at pH 8.0)

For data set [3], the system named is Shigella sonnei ATCC 9290. The data set is described as above. To be noted: ATCC9290. It is filed as cell-based.
Excerpt: as §2, §3, §4

Data set [4] has as its system Salmonella typhosa ATCC 9992. The description is as above. It is filed as cell-based. To be noted: Salmonella enterica.
Excerpt: as §2, §3, §4

The subject of data set [5] is Staphylococcus aureus ATCC 6538P. The data set is described as above. The class given is cell-based. To be noted: ATCC6538P.
Excerpt: as §2, §3, §4

In data set [6] the test system is Klebsiella pneumoniae ATCC 10031. The data set is described as above. The note with it: ATCC10031. It is filed as cell-based.
Excerpt: as §2, §3, §4

For data set [7], the system named is Proteus vulgaris ATCC 6897. Described as above. It is filed as cell-based. To be noted: ATCC6897.
Excerpt: as §2, §3, §4

For data set [8], the system named is Bacillus subtilis No. 10707. Described as above. It is filed as cell-based.
Excerpt: as §2, §3, §4

Data set [9] concerns Gram-positive and Gram-negative bacteria. The experiment in a line: Antibacterial spectrum (overall). It is filed as cell-based. The note with it: in words.
Excerpt: as §2, §3, §4

[10] abbreviates: Example 3, before cellulose column chromatography.
[11] abbreviates: Example 3, purified preparate of the free base after cellulose column chromatography.
Setting [12] is: purified preparate of the free base, Examples 1 and 2 (1 mg of a pure preparate defined as 1000 units).

In brackets after ≈: the same amount, converted by molar mass. Entries after “also recorded” stand apart in the source; their conditions may differ.

Regarding `CNC1C(O)C(OC2OC(CN)=CCC2N)C(N)C(O)C1OC` (stereo not drawn) [Fortimicin KF], the activity is 860 units/mg in data set [1] (setting [10]), 980 units/mg in data set [1] (setting [11]), 985 units/mg in data set [1] (Example 4) and “about 970 units/mg” in data set [1] (setting [12]). Besides, the “solubility in organic solvents” value in data set [2] was “insoluble”. Further, the “solubility in ethanol and acetone” value in data set [2] is “slightly soluble”. Besides, the solubility in methanol entry in [2] was “soluble”. Further, in data set [2], the solubility in water result was “readily soluble; also recorded: very soluble”. Besides, the “solubility in the ordinary organic solvents” value in [2] is “poorly soluble”. Besides, the MIC with Escherichia coli ATCC 26 is 4.2 µg/mL (≈ 12.6 µM); in data set [3], 8.4 µg/mL (≈ 25.3 µM); in [4], 4.2 µg/mL (≈ 12.6 µM); in data set [5] it was 2.1 µg/mL (≈ 6.32 µM); in data set [6], 4.2 µg/mL (≈ 12.6 µM); in [7], 4.2 µg/mL (≈ 12.6 µM). In [8], this compound registered an MIC of 4.2 µg/mL (≈ 12.6 µM). Further, the antibacterial activity entry in data set [9] is “strong antibacterial activity against a broad range of Gram-positive and Gram-negative bacteria”; in data set [9] (listed as KF), “broad antibacterial activity”.
For the compound `CNC1C(O)C(OC2OC(C(C)N)=CCC2N)C(N)C(O)C1OC` (stereo not drawn) [Fortimicin KG], the activity was 860 units/mg in data set [1] (setting [10]), 980 units/mg in [1] (setting [11]), 985 units/mg in data set [1] (Example 4) and “about 970 units/mg” in data set [1] (setting [12]). Further, in data set [2], the “solubility in organic solvents” value is “insoluble”. In addition, the “solubility in ethanol and acetone” value in [2] was “slightly soluble”. In data set [2], the solubility in methanol entry is listed as “soluble”. In addition, in [2], the solubility in water entry is “readily soluble; also recorded: very soluble”. In addition, the “solubility in the ordinary organic solvents” value in data set [2] is listed as “poorly soluble”. In addition, the MIC in the data set with Escherichia coli ATCC 26 came out at 4.5 µg/mL (≈ 13 µM); in data set [3], 9 µg/mL (≈ 26 µM); in [4], 2.3 µg/mL (≈ 6.64 µM); in data set [5], 1.1 µg/mL (≈ 3.18 µM); in data set [6], 4.5 µg/mL (≈ 13 µM); in data set [7] it was 4.5 µg/mL (≈ 13 µM). The MIC in data set [8] was 4.5 µg/mL (≈ 13 µM). For the same compound, the antibacterial activity result in [9] was “strong antibacterial activity against a broad range of Gram-positive and Gram-negative bacteria”; in [9] (listed as KG), “broad antibacterial activity”.

The values above are taken from patent US4209612A, “Fortimicin factors KF and KG and process for production thereof” (Abbott Laboratories, priority 1977, dated 1980).
